Data as given in ChEMBL document CHEMBL5331129, “Discovery of NAFLD-Improving Agents by Promoting the Degradation of Keap1” (J Med Chem, 2023).
Activity calls are given as the source filed them. The rule behind the calls is not given here.

What was measured:
[1] = test system: AML12; experiment: Antioxidant activity against free fatty acid induced oxidative stress in mouse AML12 cells assessed as upregulation of Nrf2 protein expression level at 0.125 to 0.5 uM incubated for 24 hrs by immunoblot analysis; type: functional, cell-based; conditions: dose 0.125-0.5 µM
[2] = test system: Mus musculus; experiment: Antioxidant activity against MCD diet-induced oxidative stress in C57Bl/6 mouse model of NAFLD assessed as upregulation of liver Nrf2 protein expression level at 0.5 to 2 mg/kg,ip administrated for 4 weeks by immunofluorescence staining analysis; type: functional, organism-based; conditions: dose 0.5-2 mg/kg
[3] = Acute toxicity in C57BL/6 mouse assessed as histopathological change in heart at 20 mg/kg,ip qd administrated for 3 consecutive days and measured on day 4 by hematoxylin and eosin staining based assay; type: organism-based; conditions: in vivo
[4] = test system: Mus musculus; experiment: Antioxidant activity against MCD diet-induced oxidative stress in C57Bl/6 mouse model of NAFLD assessed as downregulation of liver Keap1 protein expression level at 0.5 to 2 mg/kg,ip administrated for 4 weeks by immunohistochemical staining assay; type: functional, organism-based; conditions: dose 0.5-2 mg/kg
[5] = test system: Mus musculus; experiment: Antioxidant activity against MCD diet-induced oxidative stress in C57Bl/6 mouse model of NAFLD assessed as reduction of serum LDL-C level at ip administrated for 4 weeks; type: functional, organism-based
[6] = Toxicity in C57BL/6 mouse assessed as histopathological change in spleen at 2 mg/kg,ip qd administrated for 4 weeks by hematoxylin and eosin staining based assay; type: organism-based; conditions: in vivo, 672 h
[7] = test system: AML12; experiment: Antioxidant activity against free fatty acid induced oxidative stress in mouse AML12 cells assessed as increase in GSH level at 0.125 to 0.5 uM; type: functional, cell-based; conditions: dose 0.125-0.5 µM
[8] = test system: Mus musculus; experiment: Antioxidant activity against MCD diet-induced oxidative stress in C57Bl/6 mouse model of NAFLD assessed as decrease in liver ROS level at 0.5 to 2 mg/kg,ip administrated for 4 weeks by immunostaining analysis; type: functional, organism-based; conditions: dose 0.5-2 mg/kg
[9] = target: T1, Protein cereblon/Kelch-like ECH-associated protein 1 (Mus musculus) (UniProt Q9Z2X8+Q8C7D2); experiment: PROTAC activity at CRBN/Keap1 in mouse AML12 cells assessed as degradation of Keap1 protein level at 1 uM preincubated with MLN-4924 followed by compound addition and incubated for 24 hrs by Western blotting analysis; type: cell-based
T1 sequence (Q8C7D2 whole entry, looked up): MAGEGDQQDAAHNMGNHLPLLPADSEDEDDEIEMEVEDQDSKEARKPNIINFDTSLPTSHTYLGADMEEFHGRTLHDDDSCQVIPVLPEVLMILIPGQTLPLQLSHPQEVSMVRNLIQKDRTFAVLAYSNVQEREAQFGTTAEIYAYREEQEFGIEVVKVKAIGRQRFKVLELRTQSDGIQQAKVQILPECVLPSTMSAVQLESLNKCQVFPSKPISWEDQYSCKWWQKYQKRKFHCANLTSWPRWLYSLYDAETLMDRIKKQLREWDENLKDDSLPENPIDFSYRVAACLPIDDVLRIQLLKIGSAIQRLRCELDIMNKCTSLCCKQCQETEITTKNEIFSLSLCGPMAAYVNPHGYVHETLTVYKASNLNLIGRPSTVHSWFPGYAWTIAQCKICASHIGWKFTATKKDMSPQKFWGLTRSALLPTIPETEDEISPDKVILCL
T1 sequence (Q9Z2X8 whole entry, looked up): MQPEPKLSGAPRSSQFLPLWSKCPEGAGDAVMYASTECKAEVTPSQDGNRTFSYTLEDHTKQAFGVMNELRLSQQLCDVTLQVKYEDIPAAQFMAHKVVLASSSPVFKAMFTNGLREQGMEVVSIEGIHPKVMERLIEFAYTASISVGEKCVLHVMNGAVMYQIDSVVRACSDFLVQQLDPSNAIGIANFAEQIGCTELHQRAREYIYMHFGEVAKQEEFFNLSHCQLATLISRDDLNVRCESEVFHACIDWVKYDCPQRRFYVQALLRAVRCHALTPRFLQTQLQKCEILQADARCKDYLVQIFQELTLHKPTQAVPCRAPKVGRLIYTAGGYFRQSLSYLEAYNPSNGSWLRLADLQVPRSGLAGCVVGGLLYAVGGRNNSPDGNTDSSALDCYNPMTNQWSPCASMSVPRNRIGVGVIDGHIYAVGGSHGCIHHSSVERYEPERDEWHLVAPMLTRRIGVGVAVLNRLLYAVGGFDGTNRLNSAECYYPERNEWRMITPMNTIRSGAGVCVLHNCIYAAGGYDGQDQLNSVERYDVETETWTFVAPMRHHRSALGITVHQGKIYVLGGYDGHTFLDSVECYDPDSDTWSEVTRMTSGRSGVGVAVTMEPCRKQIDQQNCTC

[10] = Toxicity in MCD diet-induced oxidative stress in C57Bl/6 mouse model of NAFLD assessed as body weight loss at 2 mg/kg,ip administrated for 4 weeks […]; type: organism-based; conditions: in vivo, 672 h
[11] = target: T1, Protein cereblon/Kelch-like ECH-associated protein 1 (Mus musculus); experiment: PROTAC activity at CRBN/Keap1 in mouse AML12 cells assessed as degradation of Keap1 protein at 0.5 to 2 uM incubated for 6 to 48 hrs by Western blotting analysis; type: cell-based; conditions: dose 0.5-2 µM, time 6-48 hrs, TDE = time-dependent effect
[12] = Acute toxicity in C57BL/6 mouse assessed as histopathological change in kidney at 20 mg/kg,ip qd administrated for 3 consecutive days and measured on day 4 by hematoxylin and eosin staining based assay; type: organism-based; conditions: in vivo
[13] = test system: Mus musculus; experiment: Antioxidant activity against MCD diet-induced oxidative stress in C57Bl/6 mouse model of NAFLD assessed as upregulation of liver HO-1 protein expression level at 0.5 to 2 mg/kg,ip administrated for 4 weeks by immunohistochemical staining assay; type: functional, organism-based; conditions: dose 0.5-2 mg/kg
[14] = test system: Mus musculus; experiment: Antioxidant activity against MCD diet-induced oxidative stress in C57Bl/6 mouse model of NAFLD assessed as reduction of serum TC level at 0.5 to 2 mg/kg,ip administrated for 4 weeks; type: functional, organism-based; conditions: dose 0.5-2 mg/kg
[15] = Toxicity in C57BL/6 mouse assessed as histopathological change in lung at 2 mg/kg,ip qd administrated for 4 weeks by hematoxylin and eosin staining based assay; type: organism-based; conditions: in vivo, 672 h
[16] = test system: AML12; experiment: Antioxidant activity against free fatty acid induced oxidative stress in mouse AML12 cells assessed as upregulation of NQO1 protein expression level at 0.125 to 0.5 uM incubated for 24 hrs by immunoblot analysis; type: functional, cell-based; conditions: dose 0.125-0.5 µM
[17] = test system: AML12; experiment: Antioxidant activity against free fatty acid induced oxidative stress in mouse AML12 cells assessed as reduction in intracellular lipid accumulation at 0.5 uM incubated for 24 hrs by Oil Red O staining based microscopic analysis; type: functional, cell-based
[18] = test system: Mus musculus; experiment: Antioxidant activity against MCD diet-induced oxidative stress in C57Bl/6 mouse model of NAFLD assessed as reduction of serum aminotransferase level at 0.5 to 2 mg/kg,ip administrated for 4 weeks; type: functional, organism-based; conditions: dose 0.5-2 mg/kg
[19] = test system: AML12; experiment: Antioxidant activity against free fatty acid induced oxidative stress in mouse AML12 cells assessed as reduction in triglyceride level at 0.5 uM incubated for 24 hrs; type: functional, cell-based
[20] = test system: Mus musculus; experiment: Antioxidant activity against MCD diet-induced oxidative stress in C57Bl/6 mouse model of NAFLD assessed as downregulation of liver Keap1 protein expression level at 0.5 to 2 mg/kg,ip administrated for 4 weeks by immunofluorescence staining analysis; type: functional, organism-based; conditions: dose 0.5-2 mg/kg
[21] = test system: Mus musculus; experiment: Antioxidant activity against MCD diet-induced oxidative stress in C57Bl/6 mouse model of NAFLD assessed as upregulation of liver Nrf2 protein expression level at 0.5 to 2 mg/kg,ip administrated for 4 weeks by immunoblot analysis; type: functional, organism-based; conditions: dose 0.5-2 mg/kg
[22] = Toxicity in C57BL/6 mouse assessed as histopathological change in liver at 2 mg/kg,ip qd administrated for 4 weeks by hematoxylin and eosin staining based assay; type: organism-based; conditions: in vivo, 672 h
[23] = Cardiotoxicity in zebrafish at 10 uM observed at 48 hrs post fertilization; type: toxicity, Danio rerio
[24] = test system: AML12; experiment: Cytotoxicity against mouse AML12 cells at 0.5 uM incubated for 24 hrs by MTT assay; type: toxicity, cell-based; conditions: aml12, 24 h
[25] = Cardiotoxicity in zebrafish at 10 uM observed at 72 hrs post fertilization; type: toxicity, Danio rerio
[26] = test system: Mus musculus; experiment: Antioxidant activity against MCD diet-induced oxidative stress in C57Bl/6 mouse model of NAFLD assessed as upregulation of liver NQO1 protein expression level at 0.5 to 2 mg/kg,ip administrated for 4 weeks by immunohistochemical staining assay; type: functional, organism-based; conditions: dose 0.5-2 mg/kg
[27] = test system: AML12; experiment: Antioxidant activity against free fatty acid induced oxidative stress in mouse AML12 cells assessed as decrease in ROS level at 0.125 to 0.5 uM incubated for 24 hrs; type: functional, cell-based; conditions: dose 0.125-0.5 µM
[28] = target: T1, Protein cereblon/Kelch-like ECH-associated protein 1 (Mus musculus); experiment: PROTAC activity at CRBN/Keap1 in mouse AML12 cells assessed as degradation of Keap1 protein at 1 uM incubated for 24 hrs by Western blotting analysis; type: cell-based
[29] = target: T1, Protein cereblon/Kelch-like ECH-associated protein 1 (Mus musculus); experiment: PROTAC activity at CRBN/Keap1 in mouse AML12 cells assessed as degradation of Keap1 protein level at 1 uM preincubated with CDDO followed by compound addition and incubated for 24 hrs by Western blotting analysis; type: cell-based

CC1(C)CC[C@]2(C(=O)NCCCCCNc3cccc4c3C(=O)N(C3CCC(=O)NC3=O)C4=O)CC[C@]3(C)[C@H](C(=O)C=C4C5(C)C=C(C#N)C(=O)C(C)(C)[C@@H]5CC[C@]43C)[C@@H]2C1 (single isomer, unassigned)
Activity [1]: Active | Activity [2]: Dose-Dependent Effect | Activity [3]: Toxic | Activity [4]: Dose-Dependent Effect | Activity [5]: Dose-Dependent Effect | Activity [6]: Non-Toxic | Activity [7]: Active | Activity [8]: Active | Activity [9]: inactive | Activity [10]: Non-Toxic | Activity [11]: Tde | Activity [12]: Non-Toxic | Activity [13]: Dose-Dependent Effect | Activity [14]: Active | Activity [15]: Non-Toxic | Activity [16]: Active | Activity [17]: Active | Activity [18]: Active | Activity [19]: Active | Activity [20]: Dose-Dependent Effect | Activity [21]: Dose-Dependent Effect | Activity [22]: Non-Toxic | Activity [23]: Non-Toxic | Activity [24]: Non-Toxic | Activity [25]: Non-Toxic | Activity [26]: Dose-Dependent Effect | Activity [27]: Active | Activity [28]: Active | Activity [29]: inactive
